Reference: patent publication US9474755B2, “GLP-1 receptor modulators” (Receptos, Inc., priority 2014, dated 2016)

These compounds were tested against T1, GLP-1R (Homo sapiens, UniProt P43220) (assay: EC20 GLP-1(9-36) PAM cAMP Assay: dose response of compound in the presence of fixed concentration of GLP-1(9-36)). Conditions: GLP-1R CRE-bla CHO-K1 cells, in presence of fixed concentration of GLP-1(9-36), 30 min at 37° C.
T1 construct: host or cells: CRE-bla CHO-K1
Type: cell-based
Procedure: EC20 GLP-1(9-36) PAM cAMP Assay: Dose Response of Compound in the Presence of Fixed Concentration of GLP-1 (9-36).
GLP-1R CRE-bla CHO-K1 cells cultured in growth medium (DMEM-High glucose, 10% dialyzed FBS, 0.1 mM NEAA, 25 mM Hepes, 100 U/mL penicillin/100 μg/mL streptomycin, 5 μg/mL Blasticidin, 600 μg/mL Hygromycin) were trypsinized and plated in suspension into 384 well white flat bottom plates at 5000 cells/well in 12 μL assay buffer (Hanks Balanced Salt solution, 10 mM Hepes, 0.1% BSA, 10 pH 7.4). A 5× compound dose response curve (12-point) was generated in assay buffer containing 1.5 mM IBMX, 4% DMSO. GLP-1(9-36) was diluted to 4.2 μM in assay buffer containing 1.5 mM IBMX and 4% DMSO. The 5× compound dose response was added (3 μL), followed by 0.5 μL of GLP-1(9-36) and cells were incubated for 30 min at 37° C. Direct detection of cAMP was carried out using DiscoveRx HitHunter cAMP kit according to manufacturer's instructions and luminescence was read using a SpectraMax M5 plate reader. Luminescence was converted to total cAMP using a cAMP standard curve and data was analyzed by non-linear regression to determine the EC50 and Emax.

T1 sequence (P43220 24-463): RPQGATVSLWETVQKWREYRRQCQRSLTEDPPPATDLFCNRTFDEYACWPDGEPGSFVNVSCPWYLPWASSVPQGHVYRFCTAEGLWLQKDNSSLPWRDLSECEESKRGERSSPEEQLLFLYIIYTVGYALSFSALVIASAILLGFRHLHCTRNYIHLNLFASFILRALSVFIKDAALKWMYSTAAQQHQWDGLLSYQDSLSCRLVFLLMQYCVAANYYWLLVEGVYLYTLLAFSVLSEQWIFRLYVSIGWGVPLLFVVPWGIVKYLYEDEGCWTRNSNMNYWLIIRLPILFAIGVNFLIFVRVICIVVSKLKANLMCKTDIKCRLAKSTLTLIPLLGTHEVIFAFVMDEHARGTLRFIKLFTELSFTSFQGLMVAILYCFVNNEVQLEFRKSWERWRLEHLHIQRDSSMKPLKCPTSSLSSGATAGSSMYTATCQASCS
T1 sequence (P01275 100-127 partner limits assumed): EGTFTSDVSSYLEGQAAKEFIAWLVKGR

EC50 [nM] | Compound
< 500 | CC(C)CC1CCC(C2CC=C(c3cnc(-c4ccc(C[C@H](NC(=O)c5ccc(C(C)(C)C)s5)C(=O)N5CC(C(=O)O)C5)cc4)nc3)CC2)CC1 (some centres unmarked) [Compound 86]
< 500 | CCO[C@H]1CC[C@@H](C2CC=C(c3cnc(-c4ccc(C[C@H](NC(=O)c5ccc(C(C)(C)C)s5)C(=O)N5CC(C(=O)O)C5)cc4)nc3)CC2)CC1 (some centres unmarked) [Compound 83]
< 500 | CCCC1CCC(C2CC=C(c3cnc(-c4ccc(C[C@H](NC(=O)c5ccc(CC)s5)C(=O)N5CC(C(=O)O)C5)cc4)nc3)CC2)CC1 (stereo partly drawn) [Compound 31, 1-((S)-2-(5-ethylthiophene-2-carboxamido)-3-(4-(5-((1RS,1′s,4′RS)-4′-propyl-[1,1′-bi(cyclohexan)]-3-en-4-yl)pyrimidin-2-yl)phenyl)propanoyl)azetidine-3-carboxylic acid]
< 500 | CCCCCC1CCC(C2CC=C(c3cnc(-c4ccc(C[C@H](NC(=O)c5ccc(C(C)(C)C)s5)C(=O)N5CC[C@H](C(=O)O)C5)cc4)nc3)CC2)CC1 (some centres unmarked) [Compound 3]
< 500 | CCC[C@H]1CC[C@H](C2CCC(c3cnc(-c4ccc(C[C@H](NC(=O)c5ccc(C(C)(C)C)s5)C(=O)N5CC(C(=O)O)C5)cc4)nc3)=C(C)C2)CC1 (some centres unmarked) [Compound 89]
< 500 | CCO[C@H]1CC[C@H](C2CC=C(c3cnc(-c4ccc(C[C@H](NC(=O)c5ccc(C(C)(C)C)s5)C(=O)N5CC(C(=O)O)C5)cc4)nc3)CC2)CC1 (some centres unmarked) [Compound 84]

The remaining lines, values behind:

Compound | EC50 [nM]
C[C@@H](NC(=O)[C@H](Cc1ccc(-c2ncc(C3=CCC(c4ccccc4)CC3)cn2)cc1)NC(=O)c1ccc(C(C)(C)C)s1)C(=O)O (some centres unmarked) [Compound 10] | < 500
C[C@@H](NC(=O)[C@H](Cc1ccc(-c2ncc(C3=CC4CC[C@]3(C)C4(C)C)cn2)cc1)NC(=O)c1ccc(C(C)(C)C)s1)C(=O)O [Compound 58] | 2500 to 5000
CC1(C)COC2(CC=C(c3cnc(-c4ccc(CC(NC(=O)c5ccc(C(C)(C)C)s5)C(=O)N5CC(C(=O)O)C5)cc4)nc3)CC2)OC1 (centres unmarked) [Compound 43] | 5000 to 10000
CC[C@H]1CC[C@H](C2CC=C(c3cnc(-c4ccc(C[C@H](NC(=O)c5ccc(CC(C)C)s5)C(=O)N5CC(C(=O)O)C5)cc4)nc3)CC2)CC1 (some centres unmarked) [Compound 96] | < 500
CCC[C@H]1CC[C@H](C2CC=C(c3cnc(-c4ccc(C[C@H](NC(=O)c5ccc(C(C)(C)C)cc5)C(=O)N5CC(C(=O)O)C5)cc4)nc3)CC2)CC1 (mixture of isomers) [Compound 14, 1-((S)-2-(4-(tert-butyl)benzamido)-3-(4-(5-((1RS,1′s,4′RS)-4′-propyl-[1,1′-bi(cyclohexan)]-3-en-4-yl)pyrimidin-2-yl)phenyl)propanoyl)azetidine-3-carboxylic acid] | < 500
CC[C@H]1CC[C@H](C2CC=C(c3cnc(-c4ccc(C[C@H](NC(=O)c5ccc(C(C)C)s5)C(=O)N5CC(C(=O)O)C5)cc4)nc3)CC2)CC1 (some centres unmarked) [Compound 103] | < 500
CC[C@H]1CC[C@H](C2CC=C(c3cnc(-c4ccc(C[C@H](NC(=O)c5ccc(C6CC6)cc5)C(=O)N5CC(C(=O)O)C5)cc4)nc3)CC2)CC1 (some centres unmarked) [Compound 104] | < 500
CCc1ccc(C(=O)N[C@@H](Cc2ccc(-c3ncc(C4=CCC([C@H]5CC[C@H](C)CC5)CC4)cn3)cc2)C(=O)N2CC(C(=O)O)C2)s1 (some centres unmarked) [Compound 91] | < 500
CC[C@H]1CC[C@H](C2CC=C(c3cnc(-c4ccc(C[C@H](NC(=O)c5ccc(C(C)(C)C)s5)C(=O)O)cc4)nc3)CC2)CC1 (some centres unmarked) [Compound 119] | 500 to 2500
CCCC1CCC(C2CC=C(c3cnc(-c4ccc(C[C@H](NC(=O)c5ccc(C(C)(C)C)nc5)C(=O)N5CC(C(=O)O)C5)cc4)nc3)CC2)CC1 (some centres unmarked) [Compound 29] | 500 to 2500
CC[C@H]1CC[C@H](C2CC=C(c3cnc(-c4ccc(C[C@H](NC(=O)c5ccc(C(C)(C)C)s5)C(=O)N[C@H](C)C(=O)O)cc4)nc3)CC2)CC1 (some centres unmarked) [Compound 106] | < 500
